Test [1] concerns the target T1, human serotonin transporter (Homo sapiens, UniProt P31645).
T1 construct: expressed in transfected cells; host or cells: HEK cells (HEK-hSERT)
Nature of the test: [3H]serotonin uptake by HEK-hSERT cells. Conditions: for IC50: Inhibition of 5HT uptake, IC50, HEK-hSERT cells; for 5HT uptake/binding: ratio; for 5HT/DA uptake: selectivity ratio; for inhibition of serotonin reuptake: Example 5. It is filed as cell-based.

The target in test [2] is T2, human dopamine transporter (Homo sapiens, UniProt Q01959). Nature of the test: [3H]dopamine uptake by C6-hDAT cells. As to conditions: for IC50: Inhibition of DA uptake, IC50, C6-hDAT cells; for DA uptake/binding: ratio.
T2 sequence (Q01959 whole entry): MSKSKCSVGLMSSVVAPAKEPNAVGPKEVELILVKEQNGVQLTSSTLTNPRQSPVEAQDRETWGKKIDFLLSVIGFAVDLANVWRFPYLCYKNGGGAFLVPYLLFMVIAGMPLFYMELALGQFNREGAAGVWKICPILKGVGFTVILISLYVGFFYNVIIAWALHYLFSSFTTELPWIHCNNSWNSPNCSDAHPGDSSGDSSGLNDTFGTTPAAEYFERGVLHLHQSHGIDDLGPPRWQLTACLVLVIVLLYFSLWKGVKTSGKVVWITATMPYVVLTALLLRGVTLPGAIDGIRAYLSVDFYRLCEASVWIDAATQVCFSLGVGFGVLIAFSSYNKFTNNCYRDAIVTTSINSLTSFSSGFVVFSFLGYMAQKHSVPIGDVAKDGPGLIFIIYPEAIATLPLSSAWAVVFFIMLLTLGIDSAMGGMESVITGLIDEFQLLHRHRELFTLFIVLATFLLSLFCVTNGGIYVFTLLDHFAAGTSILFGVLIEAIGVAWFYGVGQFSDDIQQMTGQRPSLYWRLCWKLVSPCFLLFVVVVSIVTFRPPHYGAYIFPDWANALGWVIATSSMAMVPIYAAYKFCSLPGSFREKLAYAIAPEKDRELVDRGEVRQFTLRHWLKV
Experimental: Drugs (10 mM stock solution) were dissolved in DMSO. The final DMSO concentration in the assay is 0.01 percent. Pipetting was performed with a Biomek 2000 robotic work station.
Uptake was initiated with the addition of [3H]DA (20 nM, specific acitivity 20-53 Ci/mmol) in a final volume of 500 μl. Mazindol (5 μM) was used to define nonspecific uptake. Cells were preincubated for 10 minutes, with drug before addition of neurotransmitter. Uptake was terminated after a 2 minute incubation by removing buffer, and the plate was placed on ice and washed twice with 1 ml ice cold phosphate-buffered saline.
Test [3] is described as follows: Dose response study of induced locomotor stimulation (Example 2, Table I). As to conditions: IP; for Maximal Effect Relative to Cocaine / ED50: Table I; for ED50: Mus musculus, 30-60 minutes period, read-out: ED50 (dose producing 1/2 maximal stimulant activity). It is filed as in vivo, male Swiss-Webster mice.
In test [4] the target is T1, human serotonin transporter. Kind of test: [125I]RTI-55 binding to serotonin transporter, HEK-hSERT cells.
Test [5] can be described thus: Interaction study: antagonism of cocaine-induced locomotor stimulation (Example 3). Conditions: for effect on the stimulant effect of cocaine (words): IP, 20 mg/kg cocaine, mice; for p, one-way ANOVA, overall effect for treatment groups: log10 horizontal activity counts, 0-30 minutes.
Test [6] addresses T3, human norepinephrine transporter (Homo sapiens, UniProt P23975).
T3 construct: expressed in transfected cells; host or cells: HEK cells (HEK-hNET)
Nature of the test: biochemical. It is filed as binding.

Test [7] concerns the target T3, human norepinephrine transporter. Kind of test: cell-based. It is filed as cell-based.
For test [8], the target named is T2, human dopamine transporter. Nature of the test: [125I]RTI-55 binding to dopamine transporter, C6-hDAT cells. As to conditions: read-out: Binding to DA cloned transporter, [I125]RTI-55 Ki. Also noted: expressed in transfected cells; host or cells: C6 cells (C6-hDAT).
A short description of test [9]: Eight hour time course of locomotor stimulation, cocaine alone and Compound 2 alone (Example 4). Conditions: for p, two-way ANOVA, effect of Treatment: horizontal activity counts/10 min, eight hours; for p, one-way ANOVA, effect of Treatment: log10 horizontal activity counts.
The mark [10] stands for this setting: HEK-hNET cells, read-out: Binding to NE cloned transporter, [I125]RTI-55 Ki.
Where [11] appears, read: HEK-hNET cells, read-out: Inhibition of NE uptake, IC50.
Setting [12] is: human, hek-hnet and c6-hdat cells.
The mark [13] stands for this setting: IP, 10, 20 and 40 mg/kg cocaine.

Where “and” joins values, the source holds several entries; their conditions need not be identical. Equal entries are not always repeated. Entries after “also recorded” stand apart in the source; their conditions may differ. Where two headings read alike, the source gives them in different places. Bounds are passed on as bounds.

T1 sequence (P31645 whole entry): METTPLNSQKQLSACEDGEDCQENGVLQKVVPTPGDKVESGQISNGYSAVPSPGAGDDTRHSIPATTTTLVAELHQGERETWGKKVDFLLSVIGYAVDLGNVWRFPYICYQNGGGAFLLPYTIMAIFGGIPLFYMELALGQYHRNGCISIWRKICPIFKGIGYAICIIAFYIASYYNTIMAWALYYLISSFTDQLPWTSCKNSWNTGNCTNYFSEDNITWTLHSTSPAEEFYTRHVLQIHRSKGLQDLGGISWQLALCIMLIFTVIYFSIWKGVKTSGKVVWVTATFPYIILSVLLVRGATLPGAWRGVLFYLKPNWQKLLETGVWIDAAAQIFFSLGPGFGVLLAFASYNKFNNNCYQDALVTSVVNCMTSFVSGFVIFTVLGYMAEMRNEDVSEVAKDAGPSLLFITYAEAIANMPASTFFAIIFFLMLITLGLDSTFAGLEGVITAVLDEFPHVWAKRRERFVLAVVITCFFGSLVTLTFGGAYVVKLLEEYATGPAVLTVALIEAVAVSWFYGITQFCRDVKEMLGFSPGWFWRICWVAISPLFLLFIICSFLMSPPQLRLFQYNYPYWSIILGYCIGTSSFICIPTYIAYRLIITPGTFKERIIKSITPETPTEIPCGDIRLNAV
T3 sequence (P23975 whole entry): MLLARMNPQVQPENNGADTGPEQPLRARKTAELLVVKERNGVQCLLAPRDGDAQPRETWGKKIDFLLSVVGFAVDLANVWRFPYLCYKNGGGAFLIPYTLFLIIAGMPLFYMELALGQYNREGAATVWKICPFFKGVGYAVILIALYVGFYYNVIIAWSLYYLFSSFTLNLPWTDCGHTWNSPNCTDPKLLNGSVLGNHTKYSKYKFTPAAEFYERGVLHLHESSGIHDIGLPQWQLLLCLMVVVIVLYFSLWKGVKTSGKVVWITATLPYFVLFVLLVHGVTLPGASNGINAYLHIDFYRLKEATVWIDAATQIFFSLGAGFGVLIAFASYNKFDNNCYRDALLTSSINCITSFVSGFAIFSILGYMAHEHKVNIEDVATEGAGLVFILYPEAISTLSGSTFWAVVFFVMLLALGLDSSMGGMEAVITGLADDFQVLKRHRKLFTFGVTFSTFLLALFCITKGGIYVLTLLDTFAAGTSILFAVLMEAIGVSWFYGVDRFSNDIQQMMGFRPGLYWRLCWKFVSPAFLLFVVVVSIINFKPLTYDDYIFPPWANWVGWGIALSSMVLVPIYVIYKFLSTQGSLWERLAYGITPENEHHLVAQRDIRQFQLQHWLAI

Take `CN(Cc1ccccc1)C1CC(c2ccc(Cl)c(Cl)c2)c2ccccc21` (stereo not shown) [Compound 10]: in test [1], the IC50 came out at 3700 ± 1300 nM, the 5HT uptake/binding is 21 and the 5HT/DA uptake is on record as 6.7. In test [2], 550 ± 200 nM corresponded to half-maximal inhibition (IC50) and the DA uptake/binding was 4.6.
Consider `CCNC1CC(c2ccc(Cl)c(Cl)c2)c2ccccc21` (stereo not shown) [Compound 4], for which, in [3], the “Maximal Effect Relative to Cocaine” value is reported as 1.07. Besides, the ED50 in test [3] (mice) came to 3.9 mg/kg. Moreover, in [4], the affinity corresponds to a Ki of 2 ± 0.8 nM. In test [1], the IC50 is 13 ± 4 nM, the 5HT uptake/binding turned out to be 6.5 and the 5HT/DA uptake was determined as 0.21. Besides, in test [2], the IC50 stood at 61 ± 12 nM and the DA uptake/binding is on record as 7.5.
Turning to `CN(C1CC(c2ccc(Cl)c(Cl)c2)c2ccccc21)C(C)(C)C` (stereo not shown) [Compound 7], the “effect on locomotor activity” value in [3] (mice) is “inhibited locomotor activity; also recorded: reducing locomotor activity”. This compound also came in with an IC50 in test [1] greater than 10000 nM. Moreover, in test [2], the IC50 is 2700 ± 1500 nM and the DA uptake/binding came out at 3.0. Besides, in test [5] (20 mg/kg), the “effect on the stimulant effect of cocaine (words)” value (shortened to “effect on the stimulant effect”) was “Block the Effects of Cocaine in Mice; also recorded: antagonized the stimulant effect of cocaine; also recorded: lock the effects of cocaine in laboratory mice”. The “p, one-way ANOVA, overall effect for treatment groups” value (from here on “p, one-way ANOVA, overall effect”) in [5] is given as less than 0.5.
As to `CCCNC1CC(c2ccc(Cl)c(Cl)c2)c2ccccc21` (stereo not shown) [Compound 9], the Ki is 93 ± 9 nM in test [4], 110 ± 50 nM in test [6] (setting [10]) and 32 ± 6 nM in test [8]. For the same compound, the IC50 in [1] was found to be 240 ± 70 nM; in [7] (setting [11]), 75 ± 35 nM; in [2] it was 51 ± 21 nM. Moreover, the 5HT uptake/binding in test [1] worked out at 2.6. The 5HT/DA uptake in test [1] is reported as 4.7. Moreover, in test [7] (setting [12]), the NE/DA uptake is reported as 1.5. In test [7] (human, hek-hnet cells), this compound returned an NE uptake/binding of 0.68. For the same compound, the DA uptake/binding in test [2] stood at 1.6.
`CC(C)N(C)C1CC(c2ccc(Cl)c(Cl)c2)c2ccccc21` (stereo not shown) [Compound 8]: in test [2], the IC50 stood at 53 ± 1 nM and the DA uptake/binding was found to be 0.24. For the same compound, the Ki in test [8] worked out at 220 ± 40 nM.
For `CCN(C)C1CC(c2ccc(Cl)c(Cl)c2)c2ccccc21` (stereo not shown) [Compound 3], in test [3], the “Maximal Effect Relative to Cocaine” value worked out at 0.93. Besides, the ED50 in test [3] (mice) is 10.8 mg/kg. Moreover, in test [1], the IC50 amounted to 24 ± 7 nM, the 5HT uptake/binding amounted to 1.5 and the 5HT/DA uptake is reported as 0.10. Also, in test [2], the midpoint of inhibition, the IC50, lay at 270 ± 30 nM and the DA uptake/binding worked out at 6.9.
Take `CCCN(C)C1CC(c2ccc(Cl)c(Cl)c2)c2ccccc21` (stereo not shown) [Compound 2]: the “Maximal Effect Relative to Cocaine” value in [3] is listed as 0.51. For the same compound, in [3] (mice), the ED50 is 5.65 mg/kg. Moreover, the Ki in test [4] is 44 ± 6 nM; in test [6] (setting [10]), 400 nM and 260 nM; in test [8], 180 ± 100 nM. Besides, in test [1], the “inhibition of serotonin reuptake” value was “reduced inhibition of serotonin and norepinephrine reuptake”. For the same compound, the IC50 in test [1] is 190 nM and 1500 nM; in test [7] (setting [11]), 640 nM and 420 nM; in test [2] it was 340 nM and 190 nM. In addition, the “inhibition of norepinephrine reuptake” value in [7] (Example 5) is “reduced inhibition of serotonin and norepinephrine reuptake”. In addition, in test [7] (setting [12]), the NE/DA uptake is 1.9 and 2.2. The same compound had an NE uptake/binding in test [7] (human, hek-hnet cells) of 1.6. Also, the DA uptake/binding in test [2] was 1.4 and 1.1. In addition, the “effect on the stimulant effect” value in test [5] (20 mg/kg) is recorded as “antagonized the stimulant effect of cocaine”; in test [5] (listed as Compounds 2, 20 mg/kg) it was “Block the Effects of Cocaine in Mice”. Besides, the “p, one-way ANOVA, overall effect” value in test [5] was greater than 0.05. Moreover, in test [9] (Compound 2 IP, 280-310 min), the “dose at maximum effect” value is on record as 12.9 mg/kg. Moreover, the “maximum effect estimated from fitted dose-response curve” value in [9] (Compound 2 IP, 280-310 min, vehicle constant 399) is on record as 4581 counts/10 min. For the same compound, the “duration of stimulant effects” value in test [9] (IP, Compound 2, 3 to 30 mg/kg) is on record as “Up to Seven”. In addition, the “p, two-way ANOVA, effect of Treatment” value in test [9] is on record as less than 0.001. Also, the “p, one-way ANOVA, effect of Treatment” value in test [9] (280-310 min) is listed as less than 0.001.
As for `CC(C)(C)NC1CC(c2ccc(Cl)c(Cl)c2)c2ccccc21` (stereo not shown) [Compound 6], in [3] (mice), the ED50 stood at 506 mg/kg. For the same compound, in test [1], the IC50 is 3100 ± 1200 nM, the 5HT uptake/binding is 4.2 and the 5HT/DA uptake is reported as 8.4. Besides, the IC50 in test [7] (setting [11]) worked out at 310 ± 50 nM. Moreover, the NE uptake/binding in test [7] (ratio) was 2.1. In test [7] (selectivity ratio), the NE/DA uptake is listed as 0.84. For the same compound, in [2], the IC50 came to 370 ± 170 nM and the DA uptake/binding is 2.8. Besides, in test [5] (20 mg/kg), the “effect on the stimulant effect” value is recorded as “Block the Effects of Cocaine in Mice; also recorded: antagonized the stimulant effect of cocaine”. Also, in test [5], the “p, one-way ANOVA, overall effect” value was less than 0.5.
Consider `CN(C)C1CC(c2ccc(Cl)c(Cl)c2)c2ccccc21` (stereo not shown) [Compound 1], for which the “Maximal Effect Relative to Cocaine” value in test [3] is given as 0.82. In test [3] (mice), the ED50 worked out at 4.88 mg/kg. Also, the Ki was found to be 3.1 ± 1.2 nM in [4]; 370 ± 60 nM in test [6] (Binding to NE cloned transporter, [I125]RTI-55 Ki); 29 ± 6 nM in [8]. Further, the “inhibition of serotonin reuptake” value in test [1] was “selectively inhibits serotonin and norepinephrine reuptake”. For the same compound, the IC50 was 6.7 ± 2.2 nM in test [1]; 72 ± 40 nM in test [7] (Inhibition of NE uptake, IC50); 190 ± 20 nM in [2]. For the same compound, the 5HT uptake/binding in [1] is recorded as 2.2. Besides, the 5HT/DA uptake in [1] is 0.035. For the same compound, in [7], the “inhibition of norepinephrine reuptake” value was “selectively inhibits serotonin and norepinephrine reuptake”. In [7] (setting [12]), the NE/DA uptake worked out at 0.38. For the same compound, the NE uptake/binding in test [7] (human, hek-hnet cells) came out at 0.19. The DA uptake/binding in [2] worked out at 6.6.
With `COC(=O)[C@H]1[C@@H](OC(=O)c2ccccc2)C[C@@H]2CC[C@H]1N2C` [cocaine], the “time of maximal stimulant effects” value in test [9] (IP, 20 mg/kg cocaine) is reported as “during the first 30 minutes”. Also, in test [9] (setting [13]), the “duration of stimulant effects” value was “up to 3 hours” and the “onset of stimulant effects” value was no more than 10 min. Moreover, in test [9] (cocaine IP, first 30 minutes), the “dose at maximum effect” value was 18.3 mg/kg. The “maximum effect estimated from fitted dose-response curve” value in test [9] (cocaine IP, first 30 minutes, vehicle constant 3172) is listed as 6059 counts/10 min. In test [9], the “p, two-way ANOVA, effect of Treatment” value worked out at 0.089. In test [9] (0-30 min), the “p, one-way ANOVA, effect of Treatment” value is less than 0.001.
